Legend:
[1] = biological target: human TASK-1 (hTASK-1, hK2P3.1) (Homo sapiens, UniProt O14649); experiment: two-electrode voltage clamp in Xenopus oocytes at […]; format: cell-based; conditions: read-out: % of control current at 100 μmol/L
porcine TASK-1 (pTASK-1) = porcine TASK-1 (pTASK-1) (Sus scrofa, UniProt A0A286ZMZ4); experiment: as above; format: cell-based; conditions: read-out: % of control current at 100 μmol/L
Chain of porcine TASK-1 (pTASK-1) (A0A286ZMZ4 1-401): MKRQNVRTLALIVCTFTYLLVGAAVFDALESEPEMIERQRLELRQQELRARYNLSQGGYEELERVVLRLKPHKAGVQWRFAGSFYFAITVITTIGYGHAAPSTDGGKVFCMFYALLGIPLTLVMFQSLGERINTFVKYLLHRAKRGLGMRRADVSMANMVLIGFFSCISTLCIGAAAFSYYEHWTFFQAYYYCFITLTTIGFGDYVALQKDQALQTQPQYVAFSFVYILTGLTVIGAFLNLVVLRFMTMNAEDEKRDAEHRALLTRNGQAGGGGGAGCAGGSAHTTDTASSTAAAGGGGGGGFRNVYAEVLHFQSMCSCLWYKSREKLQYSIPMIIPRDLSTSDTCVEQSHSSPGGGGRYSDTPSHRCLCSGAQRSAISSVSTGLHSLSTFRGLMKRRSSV

Chain of human TASK-1 (hTASK-1, hK2P3.1) (O14649 whole entry): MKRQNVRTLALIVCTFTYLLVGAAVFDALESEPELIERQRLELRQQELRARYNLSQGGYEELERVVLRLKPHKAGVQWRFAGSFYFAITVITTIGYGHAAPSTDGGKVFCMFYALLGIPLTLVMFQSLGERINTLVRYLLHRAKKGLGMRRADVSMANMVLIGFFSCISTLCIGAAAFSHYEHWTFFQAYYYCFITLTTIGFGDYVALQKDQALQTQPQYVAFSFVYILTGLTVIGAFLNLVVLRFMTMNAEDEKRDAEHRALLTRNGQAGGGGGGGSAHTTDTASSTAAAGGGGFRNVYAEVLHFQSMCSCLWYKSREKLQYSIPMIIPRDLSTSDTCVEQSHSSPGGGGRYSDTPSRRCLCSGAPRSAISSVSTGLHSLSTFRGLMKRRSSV

## CCCCS(=O)(=O)Nc1ccccc1C(=O)N[C@H](CC)c1ccc(OC)nc1 [A293, 2‐(butylsulfonylamino)‐N‐[(1R)‐1‐(6‐methoxy‐3‐pyridyl)propyl]‐benzamide]
[1]
  remaining activity at 100 µM: 21.3 ± 8.7%
Porcine TASK-1 (pTASK-1)
  remaining activity at 100 µM: 28 ± 6.8%

From publication PMC7660874 (Journal of the American Heart Association: Cardiovascular …, 2020)
